From the NIST ThermoML archive (doi:10.1007/s10765-012-1371-1)
± gives the expanded uncertainty stated by the source.

Experiment: xn = mol fraction of the nth substance listed
Settings: 101 kPa, Liquid

CCCCOCC [butyl ethyl ether] + CCCCCl
viscosity [mPa·s]
Settings	283.15 K	288.15 K	293.15 K	298.15 K	303.15 K	308.15 K	313.15 K
x2 = 0	0.4796 ± 0.0091	0.4509 ± 0.0087	0.4242 ± 0.0083	0.399 ± 0.0079	0.3756 ± 0.0075	0.356 ± 0.0072	0.3416 ± 0.007
x2 = 0.0515	0.4815 ± 0.0091	0.4523 ± 0.0087	0.4254 ± 0.0083	0.4002 ± 0.0079	0.3771 ± 0.0076	0.3576 ± 0.0073	0.3426 ± 0.007
x2 = 0.1016	0.4832 ± 0.0092	0.4536 ± 0.0087	0.4265 ± 0.0083	0.4014 ± 0.0079	0.3785 ± 0.0076	0.359 ± 0.0073	0.3435 ± 0.007
x2 = 0.2008	0.4862 ± 0.0092	0.4561 ± 0.0088	0.4286 ± 0.0083	0.4036 ± 0.008	0.3812 ± 0.0076	0.3618 ± 0.0073	0.3452 ± 0.0071
x2 = 0.3003	0.489 ± 0.0092	0.4583 ± 0.0088	0.4307 ± 0.0084	0.4058 ± 0.008	0.3839 ± 0.0077	0.365 ± 0.0074	0.3473 ± 0.0071
x2 = 0.4002	0.4914 ± 0.0093	0.4604 ± 0.0088	0.4326 ± 0.0084	0.408 ± 0.008	0.3868 ± 0.0077	0.368 ± 0.0074	0.3493 ± 0.0071
x2 = 0.5014	0.4934 ± 0.0093	0.4623 ± 0.0088	0.4345 ± 0.0084	0.4102 ± 0.008	0.3895 ± 0.0077	0.3712 ± 0.0075	0.3514 ± 0.0072
x2 = 0.6023	0.4951 ± 0.0093	0.4641 ± 0.0089	0.4364 ± 0.0084	0.4123 ± 0.0081	0.3925 ± 0.0078	0.3744 ± 0.0075	0.3537 ± 0.0072
x2 = 0.7003	0.4965 ± 0.0094	0.4657 ± 0.0089	0.4381 ± 0.0085	0.4145 ± 0.0081	0.3954 ± 0.0078	0.3777 ± 0.0076	0.3559 ± 0.0072
x2 = 0.8004	0.4977 ± 0.0094	0.4672 ± 0.0089	0.4398 ± 0.0085	0.4167 ± 0.0081	0.3985 ± 0.0079	0.381 ± 0.0076	0.3585 ± 0.0073
x2 = 0.9006	0.4986 ± 0.0094	0.4687 ± 0.0089	0.4416 ± 0.0085	0.4191 ± 0.0082	0.4016 ± 0.0079	0.3846 ± 0.0077	0.3612 ± 0.0073
x2 = 0.9502	0.4989 ± 0.0094	0.4694 ± 0.0089	0.4424 ± 0.0085	0.4201 ± 0.0082	0.4033 ± 0.0079	0.3866 ± 0.0077	0.3627 ± 0.0074
